Like-named read-outs stand apart in the source and are kept apart here. Bridge positions count the residues as written; N and C are the ends. Square brackets hold non-standard residues; d marks the D form. Peptide text beside a SMILES is read from it. Hyp = O=C(O)[C@@H]1C[C@@H](O)CN1

Series [1] can be described thus: Physical stability of peptide analogues (Thioflavin T fibrillation). The class given is physicochemical. As to conditions: maximum ThT signal normalized between hAMY maximum and buffer background; 40° C., shaking, four days; pH 7 per table title. The method, boiled down:
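1 h in 50 mM NaOAc pH 4 / 50 mM NaPi pH 7; + ThT 4 μM final; 40 °C, 700 rpm linear shake 5 min pre-read; ex 450, em 480 nm q10 min × 4 d; LOESS smoothing; max signal normalised to hAMY max vs buffer blank.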

In series [2] the target is hAM1 receptor (Homo sapiens, UniProt O60895+Q16602). Kind of series: cAMP assay for in vitro receptor activation, hAM1-R. The format is cell-based. The method, boiled down:
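Receptor activation, read as cAMP, was assessed in thawed cells of a monoclonal hAM1-overexpressing stable line, plated at 8000 cells/well in DPBS supplemented with 0.05% casein and 0.5 mM IBMX.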
Background: Cyclic AMP is a second messenger, typically raised through Gs and lowered through Gi signalling.

[3] abbreviates: cAMP assay, hAM1 receptor, read-out: hAM1R EC50.

Chain of hAM1 receptor (Q16602 23-461): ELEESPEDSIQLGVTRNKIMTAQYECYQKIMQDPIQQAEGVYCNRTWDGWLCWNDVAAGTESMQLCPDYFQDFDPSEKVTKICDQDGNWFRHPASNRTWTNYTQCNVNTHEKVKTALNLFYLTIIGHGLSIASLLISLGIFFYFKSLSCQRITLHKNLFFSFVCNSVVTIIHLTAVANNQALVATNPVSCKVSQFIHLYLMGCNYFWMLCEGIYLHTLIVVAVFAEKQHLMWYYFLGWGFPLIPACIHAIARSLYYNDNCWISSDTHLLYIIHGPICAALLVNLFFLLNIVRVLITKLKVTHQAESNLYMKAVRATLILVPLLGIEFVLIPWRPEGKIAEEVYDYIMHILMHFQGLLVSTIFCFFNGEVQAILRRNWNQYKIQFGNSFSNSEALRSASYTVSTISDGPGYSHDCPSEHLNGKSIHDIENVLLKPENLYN
Chain of hAM1 receptor (O60895 43-175 partner): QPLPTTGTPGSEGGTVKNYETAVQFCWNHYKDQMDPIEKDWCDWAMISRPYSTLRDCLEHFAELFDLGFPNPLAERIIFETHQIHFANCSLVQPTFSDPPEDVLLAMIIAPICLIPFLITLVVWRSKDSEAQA

For the compound `CC[C@H](C)[C@H](NC(=O)[C@H](CCC(N)=O)NC(=O)[C@H](Cc1c[nH]cn1)NC(=O)[C@H](C)NC(=O)[C@H](CC(C)C)NC(=O)[C@H](CCCNC(=N)N)NC(=O)[C@H](CCC(N)=O)NC(=O)[C@@H](NC(=O)[C@@H](NC(=O)[C@@H]1CSSC[C@H](NC(=O)CN)C(=O)N[C@@H](CCCNC(=N)N)C(=O)N[C@@H]([C@@H](C)O)C(=O)NCC(=O)N[C@@H]([C@@H](C)O)C(=O)N1)[C@@H](C)O)C(C)C)C(=O)N[C@@H](Cc1ccc(O)cc1)C(=O)N[C@@H](CCC(N)=O)C(=O)N[C@@H](Cc1ccccc1)C(=O)N[C@H](C(=O)N[C@@H](CC(=O)O)C(=O)N[C@@H](CCCCN)C(=O)N[C@@H](Cc1ccccc1)C(=O)N[C@@H](CCCCN)C(=O)N[C@@H](CC(=O)O)C(=O)N[C@@H](CC(N)=O)C(=O)N[C@H](C(=O)N[C@@H](C)C(=O)N1CCC[C@H]1C(=O)N[C@@H](CCCNC(=N)N)C(=O)N[C@@H](CO)C(=O)N[C@@H](CCCCN)C(=O)N[C@H](C(=O)N[C@@H](CO)C(=O)N1CCC[C@H]1C(=O)N[C@@H](CCC(N)=O)C(=O)N1CCC[C@H]1C(=O)N1C[C@H](O)C[C@H]1C(N)=O)[C@@H](C)CC)C(C)C)[C@@H](C)O` [compound 203] (H-GCRTGTCTVQRLAHQIYQFTDKFKDNVAPRSKISPQP[Hyp]-NH2; disulfide 2-7; N-terminus assumed), in series [1], the “Max ThT signal (%)” value came to 1.200%. Further, the EC50 in series [2] was greater than 5 µM.

In the case of `CC(C)C[C@H](NC(=O)[C@H](CCCNC(=N)N)NC(=O)[C@H](CCC(N)=O)NC(=O)[C@@H](NC(=O)[C@@H](NC(=O)[C@@H]1CSSC[C@H](NC(=O)[C@@H](N)CCCCN)C(=O)N[C@@H](CC(N)=O)C(=O)N[C@@H]([C@@H](C)O)C(=O)N[C@@H](C)C(=O)N[C@@H]([C@@H](C)O)C(=O)N1)[C@@H](C)O)C(C)C)C(=O)N[C@@H](C)C(=O)N[C@@H](Cc1c[nH]cn1)C(=O)N[C@@H](CCC(N)=O)C(=O)N[C@@H](C)C(=O)N[C@@H](Cc1ccc(O)cc1)C(=O)N[C@@H](CCC(N)=O)C(=O)N[C@@H](Cc1ccccc1)C(=O)N[C@H](C(=O)N[C@@H](CC(=O)O)C(=O)N[C@@H](CCCCN)C(=O)N[C@@H](CC(=O)O)C(=O)N[C@@H](CCCCN)C(=O)N[C@@H](CC(=O)O)C(=O)N[C@@H](CC(N)=O)C(=O)N[C@H](C(=O)N[C@@H](C)C(=O)N1CCC[C@H]1C(=O)N1CCC[C@H]1C(=O)N[C@H](C(=O)N[C@@H](CC(N)=O)C(=O)N[C@H](C(=O)NCC(=O)N[C@@H](CO)C(=O)N[C@@H](CC(N)=O)C(=O)NCC(=O)N1C[C@H](O)C[C@H]1C(N)=O)C(C)C)[C@@H](C)O)C(C)C)[C@@H](C)O` [compound 210] (H-KCNTATCTVQRLAHQAYQFTDKDKDNVAPPTNVGSNG[Hyp]-NH2; disulfide 2-7), in series [1], the “Max ThT signal (%)” value is 1.400%. Moreover, the EC50 in series [2] (setting [3]) is greater than 5 µM.

On to `CC[C@H](C)[C@H](NC(=O)[C@H](CCC(N)=O)NC(=O)[C@H](Cc1c[nH]cn1)NC(=O)[C@H](C)NC(=O)[C@H](CC(C)C)NC(=O)[C@H](CCCNC(=N)N)NC(=O)[C@H](CCC(N)=O)NC(=O)[C@@H](NC(=O)[C@@H](NC(=O)[C@@H]1CSSC[C@H](NC(=O)CN)C(=O)N[C@@H](CCCNC(=N)N)C(=O)N[C@@H]([C@@H](C)O)C(=O)NCC(=O)N[C@@H]([C@@H](C)O)C(=O)N1)[C@@H](C)O)C(C)C)C(=O)N[C@@H](Cc1ccc(O)cc1)C(=O)N[C@@H](CCC(N)=O)C(=O)N[C@@H](Cc1ccccc1)C(=O)N[C@H](C(=O)N[C@@H](CC(=O)O)C(=O)N[C@@H](CCCCN)C(=O)N[C@@H](Cc1ccccc1)C(=O)N[C@@H](CCCCN)C(=O)N[C@@H](CC(=O)O)C(=O)N[C@@H](CC(N)=O)C(=O)N[C@H](C(=O)N[C@@H](C)C(=O)N1CCC[C@H]1C(=O)N[C@@H](CCCNC(=N)N)C(=O)N[C@@H](CO)C(=O)N[C@@H](CCCCN)C(=O)N[C@H](C(=O)N[C@@H](CO)C(=O)N1CCC[C@H]1C(=O)N[C@@H](CCC(N)=O)C(=O)N[C@H](C(=O)N[C@@H](CCSC)C(N)=O)[C@@H](C)O)[C@@H](C)CC)C(C)C)[C@@H](C)O` [compound 215] (H-GCRTGTCTVQRLAHQIYQFTDKFKDNVAPRSKISPQTM-NH2; disulfide 2-7), for which the “Max ThT signal (%)” value in series [1] is 0.600%. In addition, the EC50 in series [2] (setting [3]) was greater than 5 µM.

As to `CC[C@H](C)[C@H](NC(=O)[C@H](CCCCN)NC(=O)[C@H](CO)NC(=O)[C@H](CCCNC(=N)N)NC(=O)[C@@H]1CCCN1C(=O)[C@H](C)NC(=O)[C@@H](NC(=O)[C@H](CC(N)=O)NC(=O)[C@H](CC(=O)O)NC(=O)[C@H](CCCCN)NC(=O)[C@H](CC(=O)O)NC(=O)[C@H](CCCCN)NC(=O)[C@H](CC(=O)O)NC(=O)[C@@H](NC(=O)[C@H](Cc1ccccc1)NC(=O)[C@H](CCC(N)=O)NC(=O)[C@H](Cc1ccc(O)cc1)NC(=O)[C@H](CC(C)C)NC(=O)[C@H](CCC(N)=O)NC(=O)[C@H](Cc1c[nH]cn1)NC(=O)[C@H](C)NC(=O)[C@H](CC(C)C)NC(=O)[C@H](CCCNC(=N)N)NC(=O)[C@H](CCC(N)=O)NC(=O)[C@@H](NC(=O)[C@@H](NC(=O)[C@@H]1CSSC[C@H](NC(=O)CN)C(=O)N[C@@H](CCCNC(=N)N)C(=O)N[C@@H](Cc2ccccc2)C(=O)NCC(=O)N[C@@H]([C@@H](C)O)C(=O)N1)[C@@H](C)O)C(C)C)[C@@H](C)O)C(C)C)C(=O)N[C@@H](CO)C(=O)N1CCC[C@H]1C(=O)N[C@@H](CCC(N)=O)C(=O)N[C@H](C(=O)N1C[C@H](O)C[C@H]1C(N)=O)[C@@H](C)O` [compound 217] (H-GCRFGTCTVQRLAHQLYQFTDKDKDNVAPRSKISPQT[Hyp]-NH2; disulfide 2-7; N-terminus assumed), the “Max ThT signal (%)” value in series [1] is 13.800%. Besides, in series [2] (setting [3]), the EC50 was greater than 5 µM.

Turning to `CC[C@H](C)[C@H](NC(=O)[C@H](CCC(N)=O)NC(=O)[C@H](Cc1c[nH]cn1)NC(=O)[C@H](C)NC(=O)[C@H](CC(C)C)NC(=O)[C@H](CCCNC(=N)N)NC(=O)[C@H](CCC(N)=O)NC(=O)[C@@H](NC(=O)[C@@H](NC(=O)[C@@H]1CSSC[C@H](NC(=O)CN)C(=O)N[C@@H](CCCNC(=N)N)C(=O)N[C@@H]([C@@H](C)O)C(=O)NCC(=O)N[C@@H]([C@@H](C)O)C(=O)N1)[C@@H](C)O)C(C)C)C(=O)N[C@@H](Cc1ccc(O)cc1)C(=O)N[C@@H](CCC(N)=O)C(=O)N[C@@H](Cc1ccccc1)C(=O)N[C@H](C(=O)N[C@@H](CC(=O)O)C(=O)N[C@@H](CCCCN)C(=O)N[C@@H](Cc1ccccc1)C(=O)N[C@@H](CCCCN)C(=O)N[C@@H](CC(=O)O)C(=O)N[C@@H](CC(N)=O)C(=O)N[C@H](C(=O)N[C@@H](C)C(=O)N1CCC[C@H]1C(=O)N[C@@H](CCCNC(=N)N)C(=O)N[C@@H](CO)C(=O)N[C@@H](CCCCN)C(=O)N[C@H](C(=O)N[C@@H](CO)C(=O)N1CCC[C@H]1C(=O)N[C@@H](CCC(N)=O)C(=O)N[C@@H](C)C(=O)N1C[C@H](O)C[C@H]1C(N)=O)[C@@H](C)CC)C(C)C)[C@@H](C)O` [compound 218] (H-GCRTGTCTVQRLAHQIYQFTDKFKDNVAPRSKISPQA[Hyp]-NH2; disulfide 2-7; N-terminus assumed), in series [1], the “Max ThT signal (%)” value was determined as 4.500%. Also, the EC50 in series [2] (setting [3]) was greater than 5 µM.

Turning to `CC[C@H](C)[C@H](NC(=O)[C@H](CCC(N)=O)NC(=O)[C@H](Cc1c[nH]cn1)NC(=O)[C@H](C)NC(=O)[C@H](CC(C)C)NC(=O)[C@H](CCCNC(=N)N)NC(=O)[C@H](CCC(N)=O)NC(=O)[C@@H](NC(=O)[C@@H](NC(=O)[C@@H]1CSSC[C@H](NC(=O)CN)C(=O)N[C@@H](CCCNC(=N)N)C(=O)N[C@@H]([C@@H](C)O)C(=O)NCC(=O)N[C@@H]([C@@H](C)O)C(=O)N1)[C@@H](C)O)C(C)C)C(=O)N[C@@H](Cc1ccc(O)cc1)C(=O)N[C@@H](CCC(N)=O)C(=O)N[C@@H](Cc1ccccc1)C(=O)N[C@H](C(=O)N[C@@H](CC(N)=O)C(=O)N[C@@H](CCCCN)C(=O)N[C@@H](CC(=O)O)C(=O)N[C@@H](CCCCN)C(=O)N[C@@H](CC(=O)O)C(=O)N[C@@H](CC(N)=O)C(=O)N[C@H](C(=O)N[C@@H](C)C(=O)N1CCC[C@H]1C(=O)N[C@@H](CCCNC(=N)N)C(=O)N[C@@H](CO)C(=O)N[C@@H](CCCCN)C(=O)N[C@H](C(=O)N[C@@H](CO)C(=O)N1CCC[C@H]1C(=O)N[C@@H](CCC(N)=O)C(=O)N[C@@H](Cc1c[nH]cn1)C(=O)N1C[C@H](O)C[C@H]1C(N)=O)[C@@H](C)CC)C(C)C)[C@@H](C)O` [compound 219] (H-GCRTGTCTVQRLAHQIYQFTNKDKDNVAPRSKISPQH[Hyp]-NH2; disulfide 2-7; N-terminus assumed), the “Max ThT signal (%)” value in series [1] turned out to be 0.700%. For the same compound, the EC50 in series [2] (setting [3]) turned out to be 4.25 µM.

As to `CC[C@H](C)[C@H](NC(=O)[C@H](CCC(N)=O)NC(=O)[C@H](Cc1c[nH]cn1)NC(=O)[C@H](C)NC(=O)[C@H](CC(C)C)NC(=O)[C@H](CCCNC(=N)N)NC(=O)[C@H](CCC(N)=O)NC(=O)[C@@H](NC(=O)[C@@H](NC(=O)[C@@H]1CSSC[C@H](NC(=O)CN)C(=O)N[C@@H](CCCNC(=N)N)C(=O)N[C@@H]([C@@H](C)O)C(=O)NCC(=O)N[C@@H]([C@@H](C)O)C(=O)N1)[C@@H](C)O)C(C)C)C(=O)N[C@@H](Cc1ccc(O)cc1)C(=O)N[C@@H](CCC(N)=O)C(=O)N[C@@H](Cc1ccccc1)C(=O)N[C@H](C(=O)N[C@@H](CC(N)=O)C(=O)N[C@@H](CCCCN)C(=O)N[C@@H](CC(=O)O)C(=O)N[C@@H](CCCCN)C(=O)N[C@@H](CC(=O)O)C(=O)N[C@@H](CC(N)=O)C(=O)N[C@H](C(=O)N[C@@H](C)C(=O)N1CCC[C@H]1C(=O)N[C@@H](CCCNC(=N)N)C(=O)N[C@@H](CO)C(=O)N[C@@H](CCCCN)C(=O)N[C@H](C(=O)N[C@@H](CO)C(=O)N1CCC[C@H]1C(=O)N[C@@H](CCC(N)=O)C(=O)N[C@@H](Cc1c[nH]c2ccccc12)C(=O)N1C[C@H](O)C[C@H]1C(N)=O)[C@@H](C)CC)C(C)C)[C@@H](C)O` [compound 220] (H-GCRTGTCTVQRLAHQIYQFTNKDKDNVAPRSKISPQW[Hyp]-NH2; disulfide 2-7), the “Max ThT signal (%)” value in series [1] came out at 1.100%. The EC50 in series [2] (setting [3]) was greater than 5 µM.

A word on the EC50: it is the concentration at which the effect is half-maximal.

(Values after patent publication US12139520B2 (priority 2020, dated 2024).)
